# Measurements: patent US20200085789A1, “USE OF A PROTEASOME INHIBITOR FOR THE TREATMENT OF CENTRAL NERVOUS SYSTEM (CNS) CANCERS” (Celgene International II Sàrl, priority 2017, published 2020)
# Assay: Adverse events and dose-limiting toxicity (NCI-CTCAE v 4.03), MRZ ± BEV in recurrent grade IV malignant glioma patients
# Type: in vivo, human
# Text: An adverse event (AE) is any noxious, unintended, or untoward medical occurrence that may appear or worsen in a subject during the course of a study. […] Any worsening (i.e., any clinically significant adverse change in the frequency or intensity of a pre-existing condition) should be considered an AE.
# The severity/intensity of AEs will be graded based upon the subject's symptoms according to the current active minor version of the Common Terminology Criteria for Adverse Events ( ).
# [1] = MRZ 0.7 mg/m^2 + BEV, Cohort 2 (N = 3)
# [2] = MRZ 0.8 mg/m^2 + BEV, Cohorts 3 & 4 (N = 27)
# [3] = MRZ 0.8 mg/m^2, + BEV N = 27, Monotherapy N = 30
# [4] = MRZ 0.8 mg/m^2 Monotherapy (N = 30)
compound,measurement,setting,value
"C[C@@]12OC(=O)[C@]1([C@@H](O)[C@@H]1C=CCCC1)NC(=O)[C@@H]2CCCl [MRZ, marizomib]","Grade ≥3 Ataxia related to the labelled drug, patients",[1],0
same,"Grade ≥3 Confusional State related to the labelled drug, patients",[1],0
same,"Grade ≥3 Delusion related to the labelled drug, patients",[1],0
same,"Grade ≥3 Dyspnea related to the labelled drug, patients",[1],0
same,"Grade ≥3 Embolism related to the labelled drug, patients",[1],0
same,"Grade ≥3 Fall related to the labelled drug, patients",[1],0
same,"Grade ≥3 Fatigue related to the labelled drug, patients",[1],0
same,"Grade ≥3 Hallucination related to the labelled drug, patients",[1],0
same,"Grade ≥3 Headache related to the labelled drug, patients",[1],0
same,"Grade ≥3 Hypertension related to the labelled drug, patients",[1],0
same,"Grade ≥3 Hyponatremia related to the labelled drug, patients",[1],0
same,"Grade ≥3 Insomnia related to the labelled drug, patients",[1],0
same,"Grade ≥3 Intracranial Hemorrhage related to the labelled drug, patients",[1],0
same,"Grade ≥3 Optic Nerve Disorder related to the labelled drug, patients",[1],0
same,"Grade ≥3 Proteinuria related to the labelled drug, patients",[1],0
same,"Grade ≥3 Ataxia related to the labelled drug, patients",[2],1
same,"Grade ≥3 Confusional State related to the labelled drug, patients",[2],0
same,"Grade ≥3 Delusion related to the labelled drug, patients",[2],1
same,"Grade ≥3 Dyspnea related to the labelled drug, patients",[2],1
same,"Grade ≥3 Embolism related to the labelled drug, patients",[2],0
same,"Grade ≥3 Fall related to the labelled drug, patients",[2],1
same,"Grade ≥3 Fatigue related to the labelled drug, patients",[2],1
same,"Grade ≥3 Hallucination related to the labelled drug, patients",[2],1
same,"Grade ≥3 Headache related to the labelled drug, patients",[2],3
same,"Grade ≥3 Hypertension related to the labelled drug, patients",[2],0
same,"Grade ≥3 Hyponatremia related to the labelled drug, patients",[2],1
same,"Grade ≥3 Insomnia related to the labelled drug, patients",[2],1
same,"Grade ≥3 Intracranial Hemorrhage related to the labelled drug, patients",[2],0
same,"Grade ≥3 Optic Nerve Disorder related to the labelled drug, patients",[2],0
same,"Grade ≥3 Proteinuria related to the labelled drug, patients",[2],0
same,Anaemia,[3],(20.0%)
same,"Anaemia, patients",[3],6
same,Ataxia,[3],(20.0%)
same,"Ataxia, patients",[3],6
same,Confusional state,[3],(23.3%)
same,"Confusional state, patients",[3],7
same,Constipation,[3],(30.0%)
same,"Constipation, patients",[3],9
same,Diarrhoea,[3],(23.3%)
same,"Diarrhoea, patients",[3],7
same,Dizziness,[3],(16.7%)
same,"Dizziness, patients",[3],5
same,Dysarthria,[3],(16.7%)
same,"Dysarthria, patients",[3],5
same,Dysphonia,[3],(3.3%)
same,"Dysphonia, patients",[3],1
same,Epistaxis,[3],(6.7%)
same,"Epistaxis, patients",[3],2
same,Fall,[3],(13.3%)
same,"Fall, patients",[3],4
same,Fatigue,[3],(63.3%)
same,"Fatigue, patients",[3],19
same,Hallucination,[3],(40.0%)
same,"Hallucination, patients",[3],12
same,Headache,[3],(40.0%)
same,"Headache, patients",[3],12
same,Hyperglycaemia,[3],(27.6%)
same,"Hyperglycaemia, patients",[3],8
same,Hypertension,[3],(13.3%)
same,"Hypertension, patients",[3],4
same,Hypokalemia,[3],(27.6%)
same,"Hypokalemia, patients",[3],8
same,Infusion site pain,[3],(10.0%)
same,"Infusion site pain, patients",[3],3
same,Insomnia,[3],(46.7%)
same,"Insomnia, patients",[3],14
same,Nausea,[3],(36.7%)
same,"Nausea, patients",[3],11
same,Platelet count decreased,[3],(23.3%)
same,"Platelet count decreased, patients",[3],7
same,Vomiting,[3],(30.0%)
same,"Vomiting, patients",[3],9
same,Anaemia MRZ Related,[4],(16.7%
same,"Anaemia MRZ Related, patients",[4],5
same,Ataxia MRZ Related,[4],(16.7%)
same,"Ataxia MRZ Related, patients",[4],5
same,Confusional state MRZ Related,[4],(20.0%)
same,"Confusional state MRZ Related, patients",[4],6
same,Constipation MRZ Related,[4],(20.0%)
same,"Constipation MRZ Related, patients",[4],6
same,Diarrhoea MRZ Related,[4],(23.3) %
same,"Diarrhoea MRZ Related, patients",[4],7
same,Dizziness MRZ Related,[4],(10.0%)
same,"Dizziness MRZ Related, patients",[4],3
same,"Dysphonia MRZ Related, patients",[4],0
same,Epistaxis MRZ Related,[4],(3.3%)
same,"Epistaxis MRZ Related, patients",[4],1
same,Fall MRZ Related,[4],(3.3%)
same,"Fall MRZ Related, patients",[4],1
same,Fatigue MRZ Related,[4],(60.0%)
same,"Fatigue MRZ Related, patients",[4],18
same,Hallucination MRZ Related,[4],(36.7%)
same,"Hallucination MRZ Related, patients",[4],11
same,Headache MRZ Related,[4],(36.7%)
same,"Headache MRZ Related, patients",[4],11
same,Hypertension MRZ Related,[4],93.3%)
same,"Hypertension MRZ Related, patients",[4],1
same,Infusion site pain MRZ Related,[4],(6.7%)
same,"Infusion site pain MRZ Related, patients",[4],2
same,"Muscular weakness MRZ Related, patients",[4],0
same,Nausea MRZ Related,[4],(30.0%)
same,"Nausea MRZ Related, patients",[4],9
same,"Platelet count decreased MRZ Related, patients",[4],0
same,"Stomatitis MRZ Related, patients",[4],0
same,"Upper-airway cough syndrome MRZ Related, patients",[4],0
same,Vomiting MRZ Related,[4],(23.3) %
same,"Vomiting MRZ Related, patients",[4],7
same,"Anemia: patients, Total","Part 1 N = 36, Part 2 N = 30",6
same,"Anemia: patients, worst Grade 1","Part 1 N = 36, Part 2 N = 30",5
same,"Anemia: patients, worst Grade 2","Part 1 N = 36, Part 2 N = 30",1
same,"Ataxia: patients, Total","Part 1 N = 36, Part 2 N = 30",8
same,"Ataxia: patients, worst Grade 1","Part 1 N = 36, Part 2 N = 30",3
same,"Ataxia: patients, worst Grade 2","Part 1 N = 36, Part 2 N = 30",5
same,"Confusional State: patients, Total","Part 1 N = 36, Part 2 N = 30",7
same,"Confusional State: patients, worst Grade 1","Part 1 N = 36, Part 2 N = 30",3
same,"Confusional State: patients, worst Grade 2","Part 1 N = 36, Part 2 N = 30",4
same,"Constipation: patients, Total","Part 1 N = 36, Part 2 N = 30",10
same,"Constipation: patients, worst Grade 1","Part 1 N = 36, Part 2 N = 30",10
same,"Diarrhea: patients, Total","Part 1 N = 36, Part 2 N = 30",7
same,"Diarrhea: patients, worst Grade 1","Part 1 N = 36, Part 2 N = 30",6
same,"Diarrhea: patients, worst Grade 3","Part 1 N = 36, Part 2 N = 30",1
same,"Dizziness: patients, Total","Part 1 N = 36, Part 2 N = 30",5
same,"Dizziness: patients, worst Grade 1","Part 1 N = 36, Part 2 N = 30",4
same,"Dizziness: patients, worst Grade 2","Part 1 N = 36, Part 2 N = 30",1
same,"Dysphonia: patients, Total","Part 1 N = 36, Part 2 N = 30",1
same,"Dysphonia: patients, worst Grade 1","Part 1 N = 36, Part 2 N = 30",1
same,"Epistaxis: patients, Total","Part 1 N = 36, Part 2 N = 30",2
same,"Epistaxis: patients, worst Grade 1","Part 1 N = 36, Part 2 N = 30",2
same,"Fall: patients, Total","Part 1 N = 36, Part 2 N = 30",4
same,"Fall: patients, worst Grade 1","Part 1 N = 36, Part 2 N = 30",3
